The record followed here is US11008334B2, “Compositions and methods for treating cancer” (The Regents of the University of California, priority 2012, dated 2021).

In the assay the target is T1, K-RasG12C (1-169) (Homo sapiens, UniProt P01116, G12C).
T1 construct: Un-tagged recombinant K-Ras G12C (1-169) at 4 μM in Buffer A; hexahistidine (cleaved yes); made in house; host or cells: Escherichia coli BL21 (DE)
Put plainly: Mass spectrometric screen for extent of covalent labeling. Format: binding. To be noted: for percent covalent labeling at 10 µM: 10 micromolar; for Labeling % (10 micM) 24h: 10 micM compound, (plate) or (single) measurement. The protocol: Un-tagged recombinant K-Ras G12C (1-169) at 4 μM in Buffer A was reacted with inhibitors at 200 μM or 10 μM (2% DMSO final). At 2, 6, and 24 hrs, 10 μL aliquots were removed and the reactions were stopped by addition of 1 μL 2% formic acid. The extent of modification was determined by mass spectrometry.

Setting [1] is: 2 h, 2 hrs, read-out: Percent reduction in activity of compound at 10 micromolar relative to control (no compound), 2 hrs.
Where [2] appears, read: 6 h, 6 hrs, read-out: Percent reduction in activity of compound at 10 micromolar relative to control (no compound), 6 hrs.
[3] abbreviates: 24 h, 24 hrs, read-out: Percent reduction in activity of compound at 10 micromolar relative to control (no compound), 24 hrs.

Where two headings read alike, the source gives them in different places.

For the molecule `C=CC(=O)NC1CCN(C(=O)COc2ccc(Cl)cc2Cl)CC1` [JO-01-171], the percent covalent labeling at 10 µM reads like this: under setting [1], at most 5%; under setting [2], at most 5%; under setting [3], at most 5%.

On to `C=CC(=O)N1CCN(C(=O)COc2ccc(Cl)cc2Cl)CC1` [JO-01-172], for which the percent covalent labeling at 10 µM runs as follows: under setting [1], at most 5%; under setting [2], at most 5%; under setting [3], at most 5%.

Consider `C=CS(=O)(=O)NC1CCN(C(=O)CSc2ccc(Cl)cc2Cl)CC1` [JO-02-26], for which the percent covalent labeling at 10 µM is, setting by setting: under setting [1], at most 5%; under setting [2], at most 5%; under setting [3], 5 to 20%.

Regarding `C=CS(=O)(=O)NC1CCN(C(=O)COc2ccc(Cl)cc2Cl)CC1` [JO-02-31A], the “Labeling % (10 micM) 24h” value is recorded as “++ (plate) (5% < ++ <=20%)”. In addition, the percent covalent labeling at 10 µM under setting [1] was at most 5%. Besides, the percent covalent labeling at 10 µM under setting [2] is at most 5%. Besides, under “Table 5”, the “Labeling % (10 micM) 24h” value is on record as “++ (plate) (5% < ++ <=20%)”.

For `C=CS(=O)(=O)NC1CCN(C(=O)CSc2ccc(Cl)cc2C)CC1` [JO-02-31B], the percent covalent labeling at 10 µM under setting [1] is at most 5%, the percent covalent labeling at 10 µM under setting [2] is at most 5% and the percent covalent labeling at 10 µM under setting [3] was in the range of 5 to 20%.

Regarding `C=CS(=O)(=O)NC1CCN(C(=O)CSc2ccc(Cl)c3ccccc23)CC1` [JO-02-31C], the percent covalent labeling at 10 µM under setting [1] was at most 5%, the percent covalent labeling at 10 µM under setting [2] is at most 5% and the percent covalent labeling at 10 µM under setting [3] lay in the range of 20 to 40%.

Regarding `C=CS(=O)(=O)NC1CCN(C(=O)CSc2c(Cl)cccc2Cl)CC1` [JO-02-31D], the percent covalent labeling at 10 µM was at most 5% under setting [1], at most 5% under setting [2] and at most 5% under setting [3].

Consider `C=CS(=O)(=O)NCCNC(=O)COc1ccc(Cl)cc1Cl` [JO-02-36A], for which the percent covalent labeling at 10 µM under setting [1] was at most 5%, the percent covalent labeling at 10 µM under setting [2] is at most 5% and the percent covalent labeling at 10 µM under setting [3] is at most 5%.

Turning to `C=CS(=O)(=O)NCCCNC(=O)COc1ccc(Cl)cc1Cl` [JO-02-36B], the percent covalent labeling at 10 µM was at most 5% under setting [1], at most 5% under setting [2] and at most 5% under setting [3].

For `C=CC(=O)NCCNC(=O)COc1ccc(Cl)cc1Cl` [JO-02-37A], the percent covalent labeling at 10 µM under setting [1] is at most 5%, the percent covalent labeling at 10 µM under setting [2] was at most 5% and the percent covalent labeling at 10 µM under setting [3] is at most 5%.

On to `C=CC(=O)NCCCNC(=O)COc1ccc(Cl)cc1Cl` [JO-02-37B], for which the percent covalent labeling at 10 µM is, setting by setting: under setting [1], at most 5%; under setting [2], at most 5%; under setting [3], at most 5%.

With `C=CS(=O)(=O)Nc1cc(-c2cccs2)n[nH]1` [JO-02-38B], the percent covalent labeling at 10 µM was at most 5% under setting [1], at most 5% under setting [2] and at most 5% under setting [3].

Consider `C=CS(=O)(=O)NC1CCN(C(=O)c2cc3cc(Cl)ccc3[nH]2)CC1` [JO-02-49A], for which the percent covalent labeling at 10 µM runs as follows: under setting [1], at most 5%; under setting [2], at most 5%; under setting [3], at most 5%.

On to `C=CS(=O)(=O)NC1CCN(C(=O)c2cc3cc(F)ccc3[nH]2)CC1` [JO-02-49B], for which the percent covalent labeling at 10 µM was at most 5% under setting [1], at most 5% under setting [2] and at most 5% under setting [3].

Regarding `C=CS(=O)(=O)NC1CCN(C(=O)c2cc3cc(OC)ccc3[nH]2)CC1` [JO-02-49C], the percent covalent labeling at 10 µM runs as follows: under setting [1], at most 5%; under setting [2], at most 5%; under setting [3], at most 5%.

In the case of `C=CS(=O)(=O)N1CCC(NC(=O)COc2ccc(Cl)cc2Cl)CC1` [JO-02-55], the percent covalent labeling at 10 µM is at most 5% under setting [1], at most 5% under setting [2] and 5 to 20% under setting [3].

For `C=CS(=O)(=O)NCC(=O)NC1CCN(C(=O)COc2ccc(Cl)cc2Cl)CC1` [JO-02-56A], the “Labeling % (10 micM) 24h” value was “++++ (plate) (40% < ++++ <=60%)”. Besides, under setting [1], the percent covalent labeling at 10 µM is at most 5%. The percent covalent labeling at 10 µM under setting [2] was at most 5%. Besides, the percent covalent labeling at 10 µM under setting [3] was in the range of 40 to 60%. Moreover, where the note is “Table 5”, the “Labeling % (10 micM) 24h” value is given as “++++ (plate) (40% < ++++ <=60%)”.

On to `C=CS(=O)(=O)NCC(=O)N1CCC(NC(=O)COc2ccc(Cl)cc2Cl)CC1` [JO-02-56B], for which the percent covalent labeling at 10 µM reads like this: under setting [1], at most 5%; under setting [2], at most 5%; under setting [3], 5 to 20%.

`O=C(NC1CCN(C(=O)COc2ccc(Cl)cc2Cl)CC1)C1CO1` (centres unmarked) [JO-02-72]: the percent covalent labeling at 10 µM is at most 5% under setting [1], at most 5% under setting [2] and at most 5% under setting [3].

For `C=CS(=O)(=O)N1CC2CN(C(=O)COc3ccc(Cl)cc3Cl)CC2C1` (centres unmarked) [JO-02-74A], the percent covalent labeling at 10 µM is, setting by setting: under setting [1], at most 5%; under setting [2], at most 5%; under setting [3], 20 to 40%.

In the case of `C=CS(=O)(=O)N1CCC2(CCN(C(=O)COc3ccc(Cl)cc3Cl)C2)C1` (centres unmarked) [JO-02-74B], the percent covalent labeling at 10 µM under setting [1] was at most 5%, the percent covalent labeling at 10 µM under setting [2] was at most 5% and the percent covalent labeling at 10 µM under setting [3] lay within 5 to 20%.

In the case of `C=CS(=O)(=O)N1CCC2(CN(C(=O)COc3ccc(Cl)cc3Cl)C2)C1` [JO-02-74C], the percent covalent labeling at 10 µM by setting is: under setting [1], at most 5%; under setting [2], at most 5%; under setting [3], 5 to 20%.

As for `O=C(COc1ccc(Cl)cc1Cl)N1CCC(NCC2CO2)CC1` (centres unmarked) [JO-02-77A], the percent covalent labeling at 10 µM was at most 5% under setting [1], at most 5% under setting [2] and at most 5% under setting [3].

Consider `C=CS(=O)(=O)N1CCC2(CC1)CN(C(=O)COc1ccc(Cl)cc1Cl)C2` [JO-02-112A], for which the percent covalent labeling at 10 µM was at most 5% under setting [1], at most 5% under setting [2] and 5 to 20% under setting [3].

Take `C=CS(=O)(=O)C1CCC2(CC1)CCN(C(=O)COc1ccc(Cl)cc1Cl)C2` (centres unmarked) [JO-02-112B]: the percent covalent labeling at 10 µM is, setting by setting: under setting [1], at most 5%; under setting [2], at most 5%; under setting [3], 5 to 20%.

Turning to `C=CS(=O)(=O)NCC1CCN(C(=O)COc2ccc(Cl)cc2Cl)CC1` [JO-02-112C], the percent covalent labeling at 10 µM was at most 5% under setting [1], at most 5% under setting [2] and at most 5% under setting [3].

Consider `C=CS(=O)(=O)N1CCN(C(=O)COc2ccc(Cl)cc2Cl)CC1` [JO-02-112D], for which the “Labeling % (10 micM) 24h” value is recorded as “+++ (plate) (20%< +++ <=40%)”. Also, the percent covalent labeling at 10 µM under setting [1] is at most 5%. Moreover, the percent covalent labeling at 10 µM under setting [2] is at most 5%. Moreover, the percent covalent labeling at 10 µM under setting [3] lay in the range of 20 to 40%. In addition, the “Labeling % (10 micM) 24h” value (Table 5) is reported as “+++ (plate) (20%< +++ <=40%)”.

On to `C=CS(=O)(=O)NC1CCN(C(=O)COc2ccc(Cl)cc2)CC1` [JO-02-115A], for which the percent covalent labeling at 10 µM under setting [1] is at most 5%, the percent covalent labeling at 10 µM under setting [2] is at most 5% and the percent covalent labeling at 10 µM under setting [3] was at most 5%.

For the molecule `C=CS(=O)(=O)NC1CCN(C(=O)C(C)Oc2ccc(Cl)cc2Cl)CC1` (centres unmarked) [JO-02-115B], the percent covalent labeling at 10 µM runs as follows: under setting [1], at most 5%; under setting [2], at most 5%; under setting [3], at most 5%.
